Values of other authors, collected in patent US20030111427A1, “Composition for controlling the dissolving rate of solid sanitizers” (Arch Chemicals, Inc., priority 2001, published 2003).

Settings: at 30° C.

Q: With `[Ca+2].[O-]Cl.[O-]Cl` [calcium hypochlorite] as the compound, how does the “time for all of the calcium hypochlorite to dissolve” value (21.6 grams in 100 grams of water) read?
A: less than 5 minutes

Q: And the “amount that dissolves in 100 grams of water” value (in 100 grams of water)?
A: about 21.6 grams
